Data taken from patent US20190382396A1, “SALTS OF BICYCLO[1.1.1]PENTANE INHIBITORS OF DUAL LEUCINE ZIPPER (DLK) KINASE FOR THE TREATMENT OF DISEASE” (Board of Regents, The University of Texas System, priority 2018, published 2019).
≈ marks a conversion by molar mass, not a printed value. Like-named read-outs stand apart in the source and are kept apart here.

How the values were obtained:
Assay type in all cases: physicochemical
[1] = Solubility in physiologically relevant solutions (SGF, FaSSIF, FeSSIF); settings: 25±0.5° C.; for solubility at 24 h: 25 °C, thermodynamic from solid
Protocol: Solubility of the free base 1 and the selected salts 8, 9, 10, and 11 in physiologically relevant solutions were examined. For each material, aliquots were added to 2 ml vials containing 500 uL of either SGF, FaSSIF, or FeSSIF, which were then sealed. The mixtures were kept shaking by thermomixer at 700 rpm, 25±0.5° C. for 24 h to facilitate the dissolution and then centrifuged by 96-well plates at 3000 rpm for 2 min. The filter liquors were diluted with diluents (ACN/water, 50/50) and analyzed by HPLC.

[2] = Stability (50° C., 40° C./75% RH, light; 1 week); settings: for XRPD change? / purity: bulk, 1 week
Protocol: The stability of the free base 1 and the selected salts 8, 9, 10, and 11 was evaluated. For each material, aliquots were set up at each of conditions (50° C., 40° C./75% RH, light) at given time points (initial and 1 week). PXRD diffractograms of the hydrogen fumarate salt 11 is shown in FIG. 17, with trace (a) showing the initial salt, trace (b) showing the salt after light treatment, trace (c) showing the salt after storage at 40° C. and 75% relative humidity for 1 week, and (d) showing the salt after storage at 50° C. for 1 week.

[3] = Dynamic vapor sorption (DVS), hygroscopicity
Protocol: Dynamic vapor sorption (“DVS”) was performed at 25° C., using approx 10-15 mg of sample and N2 gas at a flow rate of 200 mL/min, dm/dt=0.01% min, minimum dm/dt stability duration of 10 min, max equilibration time of 180 min, drying at 0% RH for 120 min, scanning from 0% RH to 90% RH to 0% RH with a step size of 10% RH.
Total cycling time varied, but in all cases was about 200-250 min.

[4] = Solubility of the Example 1 compound in organic solvents; settings: thermodynamic from solid; for solubility at 2 h: 25 °C, RT; for solubility: 50° C.
Protocol: Solubility of the Example 1 compound in various organic solvents was determined by the following procedure. […] The mixture was stirred at 800 rpm at 25° C. for 2 hr. If the compound was not dissolved completely by this time, the temperature was then raised to 50° C. and stirring at 800 rpm was continued overnight. If a solid precipitate was present, the solid precipitate was then removed by centrifugation (14,000 RPM, 5 min) and dried under vacuum at 30° C. (Method I). If a solid precipitate was not present, the solvent was removed by evaporation under vacuum at 30° C. (Method II). In either case, the resulting material was evaluated by XRPD.

[5] = Thermogravimetric analysis / DSC weight loss; settings: <120° C.
Protocol: Differential scanning calorimetry (“DSC”) was performed with a TA Q2000 instrument, using approx 1 mg of sample in a crimped Al pan, heating from room temperature to 300° C. at a rate of 10° C./min.
Thermogravimetric analysis (“TGA”) was performed with a TA Q5000 instrument, using approx 2-5 mg of sample in an open Pt pan, heating from room temperature to 300° C. at a rate of 10° C./min.

[6] = aqueous with cosolvent or surfactant or cyclodextrin, 1/1 (v/v) Acetone/H2O
[7] = aqueous with cosolvent or surfactant or cyclodextrin, 1/1 (v/v) EtOH/H2O
[8] = organic solvent or mixture, ACN
[9] = organic solvent or mixture, EtOH
[10] = organic solvent or mixture, Heptane
[11] = organic solvent or mixture, MTBE
[12] = organic solvent or mixture, Toluene

solubility at 24 h ([1]; simulated gastric fluid, SGF, read-out: Solubility SGF Conc): 4.56 mg/mL (≈ 10.4 mM)
solubility at 24 h ([1]; FaSSIF, read-out: Solubility FaSSIF Conc): 0.0713 mg/mL (≈ 0.163 mM)
solubility at 24 h ([1]; FeSSIF, read-out: Solubility FeSSIF Conc): 0.473 mg/mL (≈ 1.08 mM)
FaSSIF pH after 24 h ([1]; FaSSIF): 6.48
FeSSIF pH after 24 h ([1]; FeSSIF): 5.00
SGF pH after 24 h ([1]; SGF): 3.83
XRPD change? ([2]; 40° C., 75% RH): yes
purity ([2]; 40° C., 75% RH): 99.66%
XRPD change? ([2]; 50° C.): yes
purity ([2]; 50° C.): 99.41%
initial purity ([2]; initial (before storage)): 99.59%
XRPD change? ([2]; light): yes (1)
purity ([2]; light): 96.61%
Hygroscopicity (0-40% RH) ([3]; DVS, 25° C., 0-40% RH): 0.11%
Hygroscopicity (0-90% RH) ([3]; DVS, 25° C., 0-90% RH): 2.44%
Hygroscopicity; form change ([3]; form change after DVS): no change
solubility at 2 h [4, 6]: < 50 mg/mL
solubility at 2 h [4, 7]: < 50 mg/mL
solubility at 2 h [4, 8]: < 50 mg/mL
solubility at 2 h ([4]; organic solvent or mixture, Acetone): > 50 mg/mL
solubility at 2 h ([4]; organic solvent or mixture, DCM): > 50 mg/mL
solubility at 2 h ([4]; organic solvent or mixture, DMF): > 50 mg/mL
solubility at 2 h ([4]; organic solvent or mixture, DMSO): > 50 mg/mL
solubility at 2 h ([4]; organic solvent or mixture, Dioxane): > 50 mg/mL
solubility at 2 h ([4]; organic solvent or mixture, EtOAc): > 50 mg/mL
solubility at 2 h [4, 9]: < 50 mg/mL
solubility at 2 h [4, 10]: < 50 mg/mL
solubility at 2 h ([4]; organic solvent or mixture, IPA): > 50 mg/mL
solubility at 2 h ([4]; organic solvent or mixture, MEK): > 50 mg/mL
solubility at 2 h [4, 11]: < 50 mg/mL
solubility at 2 h ([4]; organic solvent or mixture, MeOH): > 50 mg/mL
solubility at 2 h ([4]; organic solvent or mixture, THF): > 50 mg/mL
solubility at 2 h [4, 12]: < 50 mg/mL
solubility [4, 6]: < 50 mg/mL
solubility [4, 7]: < 50 mg/mL
solubility [4, 8]: > 50 mg/mL
solubility [4, 9]: > 50 mg/mL
solubility [4, 10]: < 50 mg/mL
solubility [4, 11]: < 50 mg/mL
solubility [4, 12]: < 50 mg/mL
solubility at 2 h ([4]; water, H2O): < 50 mg/mL
solubility ([4]; water, H2O): < 50 mg/mL
weight loss (TGA, %) [5]: 0.29% (<120° C.)
SMILES: CC(C)c1nc(-c2cnc(N)c(OC(F)(F)F)c2)cn1C12CC(N3CCOCC3)(C1)C2 [Example 1, 5-(2-isopropyl-1-(3-morpholinobicyclo[1.1.1]pentan-1-yl)-1H-imidazol-4-yl)-3-(trifluoromethoxy)pyridin-2-amine]
